Experimental data published in the Kinase Knowledgebase extract (Sharma et al. 2016).

Biological target: CDK2 (human) (UniProt P24941)
Test: Enzyme Assay

IC50, < 5 µM:
COc1ncccc1-c1ccnc(Nc2cccc(NC(C)=O)c2)n1
NCCNc1ncccc1-c1ccnc(Nc2cccc(Cl)c2)n1
COc1ncccc1-c1ccnc(Nc2cccc(-c3cnco3)c2)n1
CC(=O)NCCCNc1nccc(-c2ccnc(Nc3cccc([N+](=O)[O-])c3)n2)c1C
COc1cnccc1-c1ccnc(Nc2cccc(S(C)(=O)=O)c2)n1
CC(=O)NCCCNc1cc(-c2ccnc(Nc3cccc(Cl)c3)n2)cc(C)n1
CC(=O)NCCCNc1ncccc1-c1ccnc(Nc2cccc(S(N)(=O)=O)c2)n1
Nc1cnccc1-c1ccnc(Nc2cccc(Cl)c2)n1
CC(=O)NCCCNc1nccc(-c2ccnc(Nc3cccc(Cl)c3)n2)c1C
COc1ncccc1-c1ccnc(Nc2cccc(S(C)(=O)=O)c2)n1
CS(=O)(=O)c1cccc(Nc2nccc(-c3cccnc3NCCCN)n2)c1
Cc1cnccc1-c1ccnc(Nc2cccc(Cl)c2)n1
CCNS(=O)(=O)c1cccc(Nc2nccc(-c3cccnc3OC)n2)c1
CC(=O)NCCCCNc1ncccc1-c1ccnc(Nc2cccc(Cl)c2)n1
COc1ncccc1-c1ccnc(Nc2cccc(S(=O)(=O)N3CCCCC3)c2)n1
COCCCNc1ncccc1-c1ccnc(Nc2cccc(Cl)c2)n1
CC(C)NCCCNc1ncccc1-c1ccnc(Nc2cccc(Cl)c2)n1
CN(C)CCCNc1ncccc1-c1ccnc(Nc2cccc(Cl)c2)n1
N#Cc1cccc(Nc2nccc(-c3cccnc3NCCCN)n2)c1
CS(=O)(=O)NCCCNc1ncccc1-c1ccnc(Nc2cccc(Cl)c2)n1
Cc1c(-c2ccnc(Nc3cccc(Cl)c3)n2)ccnc1NCCCn1ccnc1
COc1ncccc1-c1ccnc(Nc2cccc(C(N)=O)c2)n1
Cc1c(-c2ccnc(Nc3cccc(Cl)c3)n2)ccnc1NCCCN1CCOCC1
NS(=O)(=O)c1cccc(Nc2nccc(-c3cccnc3NCCCn3ccnc3)n2)c1
COc1ncccc1-c1ccnc(Nc2ccc(N3CCN(C)CC3)cc2)n1
CC(=O)NCCCNc1ncccc1-c1ccnc(Nc2cccc(C#N)c2)n1
NCCCCNc1ncccc1-c1ccnc(Nc2cccc(Cl)c2)n1
COc1ncccc1-c1ccnc(Nc2cccc(-c3nncn3C)c2)n1
NCCCNc1ncccc1-c1ccnc(Nc2cccc(Cl)c2)n1
CC(=O)NCCCNc1cc(-c2nc(Nc3cccc(Cl)c3)ncc2C)ccn1
CNCCNc1nccc(-c2ccnc(Nc3cccc(Cl)c3)n2)c1C
CC(=O)NCCCNc1ncccc1-c1ccnc(Nc2cccc(Cl)c2)n1
CCOC(=O)c1cccc(Nc2nccc(-c3cccnc3OC)n2)c1
COCCCNc1nccc(-c2ccnc(Nc3cccc(Cl)c3)n2)c1C
O=C1CCCN1CCCNc1ncccc1-c1ccnc(Nc2cccc(Cl)c2)n1
OCCCNc1ncccc1-c1ccnc(Nc2cccc(Cl)c2)n1
CC(=O)NCC(C)(C)CNc1ncccc1-c1ccnc(Nc2cccc(Cl)c2)n1
COc1ncccc1-c1ccnc(Nc2cccc(S(N)(=O)=O)c2)n1
COc1ncccc1-c1ccnc(Nc2cccc(C#N)c2)n1
COc1ncccc1-c1ccnc(Nc2cccc(C(=O)OC(C)(C)C)c2)n1
Cc1nccn1CCCNc1ncccc1-c1ccnc(Nc2cccc(Cl)c2)n1
COc1ncccc1-c1ccnc(Nc2cccc(C3CCNCC3)c2)n1
COc1ccc(-c2ccnc(Nc3cccc(S(C)(=O)=O)c3)n2)c(OC)n1
CC(=O)NCCNc1ncccc1-c1ccnc(Nc2cccc(Cl)c2)n1
Clc1cccc(Nc2nccc(-c3cccnc3NCCc3c[nH]cn3)n2)c1
CNS(=O)(=O)c1cccc(Nc2nccc(-c3cccnc3OC)n2)c1
CC(=O)OCCCNc1ncccc1-c1ccnc(Nc2cccc(Cl)c2)n1
CC(C)(CN)CNc1ncccc1-c1ccnc(Nc2cccc(Cl)c2)n1
NCCCNc1ncccc1-c1ccnc(Nc2cccc(S(N)(=O)=O)c2)n1
Clc1cccc(Nc2nccc(-c3cccnc3NCCCN3CCOCC3)n2)c1
Cc1c(-c2ccnc(Nc3cccc(Cl)c3)n2)ccnc1NCCCN1CCCC1=O
COc1ncccc1-c1ccnc(Nc2ccc3cn[nH]c3c2)n1
Clc1cccc(Nc2nccc(-c3cccnc3NCCCn3ccnc3)n2)c1
COc1cnccc1-c1ccnc(Nc2cccc(Cl)c2)n1
COc1ncccc1-c1ccnc(Nc2cccc(S(=O)(=O)NCCO)c2)n1
COc1ncccc1-c1ccnc(Nc2cccc(C(=O)O)c2)n1
CCCCNS(=O)(=O)c1cccc(Nc2nccc(-c3cccnc3OC)n2)c1
COc1cnccc1-c1ccnc(Nc2cccc(S(N)(=O)=O)c2)n1
Cc1c(-c2ccnc(Nc3cccc(Cl)c3)n2)ccnc1NCc1ccccc1
CCNC(=O)c1cccc(Nc2nccc(-c3cccnc3OC)n2)c1
Cc1cnc(Nc2cccc(Cl)c2)nc1-c1cccnc1NCCCN
